Reference: paper PMC9368227, “Investigation of Radiotracer Metabolic Stability In Vitro with CYP-Overexpressing Hepatoma Cell Lines” (Cells, 2022)

Assay: Radiotracer incubation in buffer only (control, without any cell line), radio-TLC
Assay type: in vitro ADME
Settings: reference incubation without any cell lines
Experimental: HepG2 cells were cultured in DMEM GlutaMax (Gibco, Paisley, UK) with 10% fetal calf serum (FCS) and with selective antibiotics (penicillin/streptomycin for wildtype, Zeocin (InvivoGen, San Diego, CA, USA) for CYP1A2, and Blasticidin (Gibco, Carlsbad, CA, USA) for CYP2C19 and CYP3A4 cultures). As a negative control, cultures of CHO cultivated in Ham’s F-12 medium (Gibco) with 10% FCS and 2 mM glutamine were added for the radiotracer experiments. Cells were handled under a laminar flow hood (Thermo Scientific^TM Safe 2020, Langenselbold, Germany) and were split once or twice a week by trypsinization. Cell cultures were stored horizontally in a humidified incubator (Heracell240i) at 37 °C and 5% CO2. During the time of experimental work, the utilized cell lines were regularly checked for mycoplasma. Cells were seeded in duplicates into a 96-well plate (CellStar®) with a density of 3 × 10^5 cells/well and cultured until the next day at 37 °C and 5% CO2. Cell density was determined with a cell counter (CASY® Model TT from Schärfe System, Reutlingen, Germany). Before the addition of substrates, cells were washed twice with Krebs–Henseleit buffer (KHB). The HEPES-supplemented Krebs–Henseleit buffer (pH 7.4, KHB) was freshly prepared using HEPES (5.95 g/L), D-glucose (2.0 g/L), magnesium sulfate (0.141 g/L), potassium dihydrogenphosphate (0.16 g/L), potassium chloride (0.35 g/L), sodium chloride (6.9 g/L), calcium chloride dihydrate (0.373 g/L), and sodium bicarbonate (2.1 g/L), followed by adjustment to pH 7.4 with NaOH. […]
Incubations with radiotracer compounds were conducted, on the one hand, with radioactive ^18F-labeled compounds alone (time dependency) and, on the other hand, in the presence of 50 µM nonradioactive reference (carrier addition). For the investigation of a time-dependent metabolite formation, 2 µL aliquots were withdrawn from the supernatant, directly spotted onto the TLC plate, and analyzed as described above. […]

In the case of [2H]C([2H])([18F])c1cc(-c2ccc(C)cc2)n(-c2ccc(S(C)(=O)=O)cc2)n1 [[^18F]2, 3-([D2, ^18F]fluoromethyl)-1-[4-(methylsulfonyl)phenyl]-5-(p-tolyl)-1H-pyrazole], the “Defluorination without additional enzymes in the incubation buffer (KHB)” value is reported as “to a minor extent”.
